Results: publication PMC8562773, “Perfluoroalkyl Carboxylic Acids Interact with the Human Bile Acid Transporter NTCP” (Livers, 2021)
“And” between values parts separate entries of the source, which are not always exact repeats. Identical values can stand only once. Like-named read-outs stand apart in the source and are kept apart here.

Experiments:
NTCP = system: NTCP; design: method as in PMID 26001962; conditions: perfluoroalkyl sulfonates, previously obtained; cited from earlier work
[1] = humans; cited from earlier work
human NTCP = target: T1, human NTCP (Homo sapiens, UniProt Q14973); experiment: Sodium-dependent NTCP-mediated uptake of PFCAs into NTCP-expressing HEK293 cells (LC-MS/MS); type: in vitro ADME; conditions: for transport by NTCP (substrate, words): sodium-dependent uptake in NTCP-HEK293
T1 construct: containing the human NTCP open reading frame with a C-terminal 6-His tag; expressed in transfected cells
T1 sequence (Q14973 1-349): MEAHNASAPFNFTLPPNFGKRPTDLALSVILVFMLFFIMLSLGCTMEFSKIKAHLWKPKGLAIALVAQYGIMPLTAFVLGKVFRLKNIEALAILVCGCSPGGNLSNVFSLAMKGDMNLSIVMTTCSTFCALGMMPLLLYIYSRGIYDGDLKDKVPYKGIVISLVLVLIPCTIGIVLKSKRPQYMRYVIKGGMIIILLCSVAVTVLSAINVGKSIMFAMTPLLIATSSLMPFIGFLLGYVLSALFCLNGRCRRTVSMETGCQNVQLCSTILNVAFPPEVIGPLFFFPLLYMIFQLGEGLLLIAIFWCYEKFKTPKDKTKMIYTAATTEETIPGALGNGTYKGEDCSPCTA
Protocol: (§1) Flp-In™-293 (HEK293) cells were purchased from Thermo Fisher Scientific (Waltham, MA, USA) and grown at 37 °C in a humidified 5% CO2 atmosphere in Dulbecco’s Modified Eagle’s Medium (DMEM) obtained from the American Type Culture Collection (ATCC, Manassas, VA, USA: 30-2002). The medium was supplemented with 10% fetal bovine serum (FBS) (Hyclone, Logan, UT, USA), and 100 U/mL penicillin, 100 μg/mL streptomycin (Thermo fisher Scientific). The pcDNA5/FRT plasmid containing the human NTCP open reading frame with a C-terminal 6-His tag was used to generate a stable NTCP-expressing cell line using hygromycin selection. A single clone was isolated using a cloning cylinder and cultivated in the above DMEM with the addition of 500 μg/mL hygromycin (Thermo Fisher Scientific). For transport experiments, cells were plated on poly-D-lysine-coated 24-well plates at 300,000 cells per well for uptake experiments after 48 h or at 200,000 cells per well for uptake experiments after 72 h. Uptake experiments and LC-MS/MS analysis were performed at the time points indicated in the figure legends as previously described.
To resolve whether PFOA, PFNA, and PFDA were substrates of NTCP, we measured the transport of these compounds. […] To better characterize this transport, we wanted to perform kinetics experiments and determine the Km and Vmax values for the three compounds. Therefore, in Figure 4, we determined the initial linear rate conditions in which to perform the kinetics experiments. We evaluated the time-dependent uptake of PFOA, PFNA, and PFDA at 10 and 300 μM in NTCP-expressing HEK293 cells in sodium-containing and sodium-free buffer. While there is a time-dependent uptake of all three PFCAs, most likely due to organic anion transporters expressed in HEK293 cells, NTCP only transports its substrates in the presence of sodium. Therefore, we calculated the net sodium-dependent uptake. Based on the time-dependent sodium-dependent uptake results shown in Figure 4, we used 20 s for PFOA (Figure 4A), 30 s for PFNA (Figure 4B), and 1 min for PFDA (Figure 4C) to perform the concentration-dependent uptake kinetics.
Figure 4. Time dependency of NTCP-mediated PFOA, PFNA, and PFDA uptake. Uptake of (A) perfluorooctanoic acid (PFOA), (B) perfluorononanoic acid (PFNA), or (C) perfluorodecanoic acid (PFDA) was measured in NTCP-expressing HEK293 cells in sodium-containing (NaCl; solid lines) or sodium-free (ChCl; dotted lines) buffer at the indicated times at 37 °C and corrected for protein. The net sodium-dependent uptake (net; dashed lines) is also shown. The results are presented as means ± SD of two combined independent experiments performed in triplicates.
For the concentration-dependent uptake of […], we were limited by solubility and could only determine uptake up to a concentration of 1 mM. […] Therefore, no kinetic constants could be calculated for PFDA.
Figure 5. Kinetics of NTCP-mediated PFOA and PFNA uptake. Uptake of increasing concentrations of (A) perfluorooctanoic acid (PFOA) or (B) perfluorononanoic acid (PFNA) was measured at 37 °C for 20 (PFOA) or 30 s (PFNA) in NTCP-expressing HEK293 cells in sodium-containing or sodium-free buffer and corrected for protein. Net uptake was calculated by subtracting uptake in the sodium-free medium from uptake in the sodium-containing medium. Values are mean ± SD of three independent experiments parformed in triplicates. Curves were fit using the Michaelis–Menten equation in GraphPad Prism V9.

[2] = target: T2, human Na+/taurocholate cotransporting polypeptide (NTCP) (Homo sapiens, UniProt Q14973); experiment: Inhibition kinetics of NTCP-mediated taurocholate transport in NTCP-expressing HEK293 cells; type: cell-based; conditions: for type of inhibition of NTCP-mediated taurocholate uptake: inhibition kinetics, best fit
T2 construct: containing the human NTCP open reading frame with a C-terminal 6-His tag; expressed in transfected cells
T2 sequence (Q14973 1-349): T1 sequence (Q14973 1-349)
Protocol: as §1
Figure 3. Kinetics of taurocholate uptake in the absence and presence of PFOA, PFNA, and PFDA. Uptake of increasing concentrations of [^3H]-taurocholate into NTCP-expressing HEK293 cells was measured for 15 s (within the initial linear rate) at 37 °C in a sodium-containing buffer in the absence or presence of 10 and 100 μM of (A) PFOA, (B) PFDA, or (C) PFNA. After correction for protein, the results were analyzed using GraphPad Prism V9 using the “Enzyme kinetics–Inhibition” equations. […] Mean ± SD values of two independent experiments performed in triplicate are shown.

[3] = design: method as in PMID 33201517; conditions: laboratory mice and non-human primates; cited from earlier work
[4] = target: T2, human Na+/taurocholate cotransporting polypeptide (NTCP); experiment: Inhibition of NTCP-mediated [3H]-taurocholate uptake in NTCP-expressing HEK293 cells; type: cell-based; conditions: for IC50 / inhibition of NTCP-mediated taurocholate uptake: 1 μM [3H]-taurocholate, 1 min, 37 °C; for IC50: sodium-containing buffer, 3 independent experiments; for statistically significant inhibition of taurocholate uptake / inhibition of NTCP-mediated taurocholate uptake: 10 μM PFCA; for statistically significant inhibition of taurocholate uptake: 1 μM taurocholate, p < 0.05 vs control; for inhibition of NTCP-mediated taurocholate uptake: NTCP-HEK293
Protocol: as §1
To investigate whether PFCAs would interact with the human Na^+/taurocholate cotransporting polypeptide (NTCP), we determined to what extent perfluorinated carboxylic acids with chain lengths from 3 to 18 carbon atoms (C3 to C18) would inhibit NTCP-mediated taurocholate uptake. For these experiments, we measured the uptake of 1 μM taurocholate in the presence and absence of 10 or 100 μM of each of the PFCAs.
Figure 1. […] Uptake was measured in sodium-containing (NaCl) or sodium-free (ChCl) buffer for 1 min at 37 °C and corrected for protein. Uptake then was normalized to control (NaCl) and individual values of 1 or 2 experiments performed in triplicates are presented. Bars represent the mean ± SD, asterisks indicate significant differences to the control (NaCl) at p < 0.05.
For these experiments, NTCP-mediated uptake of 1 μM taurocholate was measured in the absence and presence of increasing concentrations of perfluorinated compounds. For PFOA and PFNA, the concentrations ranged from 0.1 to 1000 μM, while the concentrations for PFDA were between 0.1 and 100 μM, due to solubility limitations.
Figure 2. […] Uptake of 1 μM [^3H]-taurocholate was measured into NTCP-expressing HEK293 cells in the absence or presence of increasing concentrations of (A) perfluorooctanoic acid (PFOA), (B) perfluorononanoic acid (PFNA), or (C) perfluorodecanoic acid (PFDA). Uptake was measured for 1 min at 37 °C in a sodium-containing buffer and corrected for protein. After conversion of the data to percent of control, IC50 values were calculated using GraphPad Prism V9 using the “One site-Fit logIC50” equation from 3 independent experiments performed in triplicates. The 95% confidence intervals are given in parentheses.

[5] = design: method as in PMID 33201517, PMID 18353799; conditions: laboratory rodents; cited from earlier work
[6] = in presence of 10 μM PFCA, 95% CI in parentheses
[7] = in presence of 100 μM PFCA, 95% CI in parentheses
[8] = competitive inhibition fit, taurocholate uptake 15 s, 37 °C, 0, 10 and 100 μM PFCA, table: 95% CI in parentheses, read-out: Ki

Compound	Km (NTCP)	transport by NTCP (substrate, words) (human NTCP)	Vmax of taurocholate uptake [2, 6]	Vmax of taurocholate uptake [2, 7]	type of inhibition of NTCP-mediated taurocholate uptake [2]	IC50 [4]	other results
O=S(=O)(O)C(F)(F)C(F)(F)C(F)(F)C(F)(F)F [PFBS, perfluorobutane sulfonate]	39.6 µM	–	–	–	–	–	–
O=C(O)C(F)(F)C(F)(F)C(F)(F)C(F)(F)C(F)(F)C(F)(F)C(F)(F)F [PFOA, perfluorooctanoic acid]	–	can transport	3.0 (2.8–3.2) nmol/mg·min	2.8 (2.6–3.1) nmol/mg·min	competitive inhibitors	28 µM	serum elimination half-life [1]: several years; Ki value lower than Km value (human NTCP; Ki (taurocholate uptake inhibition) versus Km (own transport)): about 100 fold; Ki [2]: 17 µM; serum elimination half-life [3]: days to weeks; statistically significant inhibition of taurocholate uptake [4]: statistically significant inhibitors at 10 μM, but to a lesser extent
O=C(O)C(F)(F)C(F)(F)C(F)(F)C(F)(F)C(F)(F)C(F)(F)C(F)(F)C(F)(F)F [PFNA, perfluorononanoic acid]	–	can transport	3.5 (3.2–3.7) nmol/mg·min	3.1 (2.5–4.1) nmol/mg·min	competitive inhibitors	7.5 µM	Vmax of sodium-dependent NTCP-mediated PFCA uptake (human NTCP; net sodium-dependent uptake, 37 °C, 20 s (PFOA) or 30 s (PFNA)): 670 ± 391 nmol/mg/min; Km (human NTCP; net sodium-dependent uptake, 37 °C, 20 s (PFOA) or 30 s (PFNA), PFNA value a rough estimate, saturation not reached, read-out: Km of sodium-dependent NTCP-mediated PFCA uptake): 5300 ± 3500 µM; Ki [2, 8]: 12.3 µM and 12 µM; inhibition of NTCP-mediated taurocholate uptake [4]: 60–70%
O=C(O)C(F)(F)C(F)(F)C(F)(F)C(F)(F)C(F)(F)C(F)(F)C(F)(F)C(F)(F)C(F)(F)F [PFDA, Perfluorodecanoic acid]	–	can transport	3.2 (3.0–3.4) nmol/mg·min	2.5 (2.2–3.0) nmol/mg·min	competitive inhibitors	9.5 µM	saturation of sodium-dependent uptake (human NTCP; concentration range tested up to 300 mM (so in the source), 1 min): did not reach saturation; Ki [2, 8]: 8.3 µM; inhibition of NTCP-mediated taurocholate uptake [4]: 60–70%
C[C@H](CCC(=O)NCCS(=O)(=O)O)[C@H]1CC[C@H]2[C@@H]3[C@H](O)C[C@@H]4C[C@H](O)CC[C@]4(C)[C@H]3C[C@H](O)[C@]12C [taurocholate, reference compound]	–	–	–	–	–	–	Vmax of taurocholate uptake ([2]; concentration of PFCA 0 (control of each PFCA series), 95% CI in parentheses): 2.9 (2.7–3.2) nmol/mg·min and 3.2 (2.9–3.4) nmol/mg·min and 3.5 (3.2–3.8) nmol/mg·min; Km ([2]; concentration of PFCA 0 (control of each PFCA series), 95% CI in parentheses, read-out: Km of taurocholate uptake): 12 µM and 16 µM
O=C(O)C(F)(F)C(F)(F)C(F)(F)C(F)(F)C(F)(F)C(F)(F)C(F)(F)C(F)(F)C(F)(F)C(F)(F)F [perfluoroundecanoic acid]	–	–	–	–	–	–	statistically significant inhibition of taurocholate uptake [4]: statistically significant inhibitors at 10 μM, but to a lesser extent
O=S(=O)(O)C(F)(F)C(F)(F)C(F)(F)C(F)(F)C(F)(F)C(F)(F)F [PFHxS, perfluorohexane sulfonate]	112 µM	–	–	–	–	–	–
O=S(=O)(O)C(F)(F)C(F)(F)C(F)(F)C(F)(F)C(F)(F)C(F)(F)C(F)(F)C(F)(F)F [PFOS, perfluorooctane sulfonate]	130 µM	–	–	–	–	–	–
O=C(O)C(F)(F)C(F)(F)C(F)(F)F [PFBA, perfluorobutanoic acid]	–	–	–	–	–	–	serum elimination half-life [1]: a few days; serum elimination half-life [5]: a few hours
